Experimental data taken from patent US5070089A, “Therapeutic agent for liver disease and piperazine derivatives” (Nippon Chemiphar Co., Ltd., priority 1988, dated 1991).
Where two headings read alike, the source gives them in different places.

Columns and labels:
[1] = system: acute liver disease caused by CCl4 (Wister-strain rat); assay: Preventive action on deviation of GOT value and GPT value in vivo using model of acute liver disease caused by CCl4
Description: CCl4 in olive oil (concentration: 50%) was orally administered to a Wister-strain rat (body weight: 170-180 g) fasted for 24 hrs., at a dose of 1 ml/kg, to cause acute liver disease. […] For control group, 1.0% methylcellulose (MC) was administered in place of the piperazine derivative. For normal group, a simple olive oil was administered in place of the CCl4 -containing olive oil. For the administration, the piperazine derivative was employed in the form of a dispersion in aqueous MC solution (concentration: 1.0%). At 24 hours after the administration of CCl4, the rat was abdominally sectioned under ether anesthesia. From the abrominal large vein, a blood was collected. The collected blood was subjected to centrifugal separation at 3,000 r.p.m. for 10 min to obtain its plasma. […] The results are set forth in Table 4 in terms of a ratio (%) of suppression (prevention) of GOT or GPT. In Table 4, "***" means 90-100%, "**" means 60-90%, and "*" means 30-60%. The ratio of suppression is calculated according to the following equation. [formula]

[2] = Toxicity by oral administration; format: in vivo; conditions: even at 1,600 mg/kg by oral administration
Description: Further, it has been experimentally confirmed that all of piperazine derivatives of the invention tested for toxicity (Compound Nos. 4, 5, 22, 23, 32, 33, 38, 75 and 113 indicated in Tables 1 and 2) cause no death even at 1,600 mg/kg by oral administration.

[3] = system: lipid peroxidation in rat hepatocyte; assay: Inhibitory action on lipid peroxidation (rat hepatocyte, TBA color formation, absorbance at 530 nm); format: biochemical; conditions: 37° C., 1 hour; for Inhibition ratio (at Final Concentration of Tested Compound) 10^-4 M: final concentration 10^-4 M, 100 µM; for Inhibition ratio (at Final Concentration of Tested Compound) 10^-5 M: final concentration 10^-5 M, 10 µM
Description: A hepatocyte was isolated from rat according to the method of Ui et al (Hiroshi Oka and Tadao Ui: "Isolated Cells--Experimental and Application",page 91). The determination of lipid peroxidation was performed using a died hepatocyte which had been frozen at -85° C. and stored at the temperature and which was melted when the experimental was done. […] The centrifugal tube was shaken at 37° C. for 1 hour for performing a reaction, and then placed into an ice-water bath to terminate the reaction. […] The centrifugal tube was taken out of the ice-water bath and placed in a water bath (kept at 95°-98° C.). The content of the tube was heated in the bath for 1 hour for developing color-formation. After the heating was complete, the content of the tube was cooled and subjected to centrifugal separation. The inhibitory action on lipid peroxidation of the sample was determined by measuring absorbance at 530 nm. The determined inhibitory action is expressed inhibition ratio by percent (%) calculated by the following equation: [formula] In Table 3, the number of the tested compound corresponds to the identical number set forth in Tables 1 and 2 for identifying the compounds of the invention.

[4] = Rattus norvegicus, po, 24 h, read-out: ratio (%) of suppression (prevention) of GOT
[5] = Rattus norvegicus, po, 24 h, read-out: ratio (%) of suppression (prevention) of GPT
[6] = rat, 30 mg/kg, 3 hour before oral CCl4, plasma GOT at 24 hours after CCl4, read-out: ratio (%) of suppression (prevention) of GOT
[7] = rat, 30 mg/kg, 3 hour before oral CCl4, plasma GPT at 24 hours after CCl4, read-out: ratio (%) of suppression (prevention) of GPT

## COc1ccc(CN2CCN(C(=S)SC)CC2)c(OC)c1OC [Compound 33, Methyl 4-(2,3,4-trimethoxybenzyl)-1-piperazinecarbodithioate]
[1]; [4]
  inhibition in vivo at 30 mg/kg: 90 to 100%
[1]; [5]
  inhibition in vivo at 30 mg/kg: 60 to 90%
[2]
  death in toxicity test: no death

## COc1ccccc1CN1CCN(C(=S)SC)CC1 [Compound 5, Methyl 4-(2-methoxybenzyl)-1-piperazinecarbodithioate]
[1]; [4]
  inhibition in vivo at 30 mg/kg: 90 to 100%
[1]; [5]
  inhibition in vivo at 30 mg/kg: 90 to 100%
[2]
  death in toxicity test: no death

## COc1ccc(OC)c(CN2CCN(C(=S)SC)CC2)c1 [Compound 23, Methyl 4-(2,5-dimethoxybenzyl)-1-piperazinecarbodithioate]
[3]
  Inhibition ratio (at Final Concentration of Tested Compound) 10^-4 M: 100%
  Inhibition ratio (at Final Concentration of Tested Compound) 10^-5 M: 60.6%
[1]; [4]
  inhibition in vivo at 30 mg/kg: 90 to 100%
[1]; [5]
  inhibition in vivo at 30 mg/kg: 90 to 100%
[2]
  death in toxicity test: no death

## CSC(=S)N1CCN(CC2=C(C)C(=O)C(C)=C(C)C2=O)CC1 [Compound 113, Methyl 4-(3,5,6-trimethyl-1,4-benzoquinonylmethyl)-1-piperazinecarbodithioate]
[1]; [4]
  inhibition in vivo at 30 mg/kg: 90 to 100%
[1]; [5]
  inhibition in vivo at 30 mg/kg: 60 to 90%
[2]
  death in toxicity test: no death

## CSC(=S)N1CCN(Cc2ccccc2O)CC1 [Compound 4, Methyl 4-(2-hydroxybenzyl)-1-piperazinecarbodithioate]
[3]
  Inhibition ratio (at Final Concentration of Tested Compound) 10^-4 M: 100%
  Inhibition ratio (at Final Concentration of Tested Compound) 10^-5 M: 96.6%
[1]; [4]
  inhibition in vivo at 30 mg/kg: 90 to 100%
[1]; [5]
  inhibition in vivo at 30 mg/kg: 90 to 100%
[2]
  death in toxicity test: no death

## CSC(=S)N1CCN(Cc2ccc(O)c(O)c2O)CC1 [Compound 32, Methyl 4-(2,3,4-trihydroxybenzyl)-1-piperazinecarbodithioate]
[3]
  Inhibition ratio (at Final Concentration of Tested Compound) 10^-4 M: 87.8%
  Inhibition ratio (at Final Concentration of Tested Compound) 10^-5 M: 87.4%
[1]; [4]
  inhibition in vivo at 30 mg/kg: 60 to 90%
[1]; [5]
  inhibition in vivo at 30 mg/kg: 60 to 90%
[2]
  death in toxicity test: no death

## CSC(=S)N1CCN(CC(O)c2ccc(O)c(O)c2)CC1 (stereo not shown) [Compound 73, Methyl 4-{2-(3,4-dihydroxyphenyl)-2-hydroxy}ethyl-1-piperazinecarbodithioate]
[3]
  Inhibition ratio (at Final Concentration of Tested Compound) 10^-4 M: 88.4%
  Inhibition ratio (at Final Concentration of Tested Compound) 10^-5 M: 44.5%
[1]; [6]
  inhibition in vivo at 30 mg/kg: 60 to 90%
[1]; [7]
  inhibition in vivo at 30 mg/kg: 60 to 90%

## CSC(=S)N1CCN(Cc2cc(O)ccc2O)CC1.Cl [Compound 16, Methyl 4-(2,5-dihydroxybenzyl)-1-piperazinecarbodithioate hydrochloride]
[3]
  Inhibition ratio (at Final Concentration of Tested Compound) 10^-4 M: 73.4%
  Inhibition ratio (at Final Concentration of Tested Compound) 10^-5 M: 69.4%
[1]; [6]
  inhibition in vivo at 30 mg/kg: 90 to 100%
[1]; [7]
  inhibition in vivo at 30 mg/kg: 90 to 100%

## COc1cccc(CN2CCN(C(=S)SC)CC2)c1OC [Compound 22, Methyl 4-(2,3-dimethoxybenzyl)-1-piperazinecarbodithioate]
[3]
  Inhibition ratio (at Final Concentration of Tested Compound) 10^-4 M: 100%
  Inhibition ratio (at Final Concentration of Tested Compound) 10^-5 M: 92.0%
[1]; [4]
  inhibition in vivo at 30 mg/kg: 90 to 100%
[1]; [5]
  inhibition in vivo at 30 mg/kg: 60 to 90%
[2]
  death in toxicity test: no death

## COc1ccc(CC(=O)N2CCN(C(=S)SC)CC2)c(OC)c1OC [Compound 75, Methyl 4-(2,3,4-trimethoxyphenylacetyl)-1-piperazinecarbodithioate]
[1]; [4]
  inhibition in vivo at 30 mg/kg: 60 to 90%
[1]; [5]
  inhibition in vivo at 30 mg/kg: 60 to 90%
[2]
  death in toxicity test: no death

## COc1cc(C=O)cc(CN2CCN(C(=S)SC)CC2)c1O [Compound 38, Methyl 4-(5-formyl-2-hydroxy-3-methoxybenzyl)-1-piperazinecarbodithioate]
[1]; [4]
  inhibition in vivo at 30 mg/kg: 60 to 90%
[1]; [5]
  inhibition in vivo at 30 mg/kg: 60 to 90%
[2]
  death in toxicity test: no death

## CSC(=S)N1CCN(Cc2ccccc2N)CC1 [Compound 11, Methyl 4-(2-aminobenzyl)-1-piperazinecarbodithioate]
[3]
  Inhibition ratio (at Final Concentration of Tested Compound) 10^-4 M: 98.6%
  Inhibition ratio (at Final Concentration of Tested Compound) 10^-5 M: 95.5%
[1]; [6]
  inhibition in vivo at 30 mg/kg: 90 to 100%
[1]; [7]
  inhibition in vivo at 30 mg/kg: 90 to 100%

## COc1c(OC(C)=O)c(C)c(CN2CCN(C(=S)SC)CC2)c(OC(C)=O)c1OC [Compound 48, Methyl 4-(2,5-diacetoxy-3,4-dimethoxy-6-methylbenzyl)-1-piperazinecarbodithioate]
[3]
  Inhibition ratio (at Final Concentration of Tested Compound) 10^-4 M: 96.2%
  Inhibition ratio (at Final Concentration of Tested Compound) 10^-5 M: 97.5%
[1]; [6]
  inhibition in vivo at 30 mg/kg: 60 to 90%
[1]; [7]
  inhibition in vivo at 30 mg/kg: 60 to 90%

## COc1c(O)c(C)c(CN2CCN(C(=S)SC)CC2)c(O)c1OC [Compound 47, Methyl 4-(2,5-dihydroxy-3,4-dimethoxy-6-methylbenzyl)-1-piperazinecarbodithioate]
[3]
  Inhibition ratio (at Final Concentration of Tested Compound) 10^-4 M: 100%
  Inhibition ratio (at Final Concentration of Tested Compound) 10^-5 M: 56.1%
[1]; [6]
  inhibition in vivo at 30 mg/kg: 90 to 100%
[1]; [7]
  inhibition in vivo at 30 mg/kg: 90 to 100%
